Experimental data taken from US11046680B1, “Heteroaryl-substituted triazoles as APJ receptor agonists” (priority 2016, dated 2021).

Molecular target: human APJ receptor (Homo sapiens (Human), UniProt P35414)
Test: biochemical
Assay type: biochemical
Conditions: [35S]GTPγS binding, CHO membranes expressing human APJ receptor; read-out: Activity hAPJ SPA EC50 IP
In short: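 GTPγS binding on membranes from CHO cells stably expressing FLAG-tagged human APJ, with optimized GDP, MgCl2 and NaCl; incubated 90 min at RT before imaging read-out.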

Sequence of human APJ receptor (P35414 whole entry): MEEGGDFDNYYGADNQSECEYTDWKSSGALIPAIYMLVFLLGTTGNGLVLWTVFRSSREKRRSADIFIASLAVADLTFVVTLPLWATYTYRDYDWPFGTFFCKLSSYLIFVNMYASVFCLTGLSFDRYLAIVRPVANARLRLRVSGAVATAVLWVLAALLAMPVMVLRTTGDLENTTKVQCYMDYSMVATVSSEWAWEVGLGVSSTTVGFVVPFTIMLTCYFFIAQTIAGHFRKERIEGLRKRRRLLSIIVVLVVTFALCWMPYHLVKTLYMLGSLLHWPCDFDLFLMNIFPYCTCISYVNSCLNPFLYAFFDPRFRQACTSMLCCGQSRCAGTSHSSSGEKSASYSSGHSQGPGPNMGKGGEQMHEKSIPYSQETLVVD

Point of comparison: COc1cccc(OC)c1-n1c(NS(=O)(=O)[C@@H](C)[C@H](OC)c2cnc(C)cn2)nnc1-c1cc2n(n1)CCC2 [Example 216.0, (1R,2S)-N-(5-(5,6-dihydro-4H-pyrrolo[1,2-b]pyrazol-2-yl)-4-(2,6-dimethoxyphenyl)-4H-1,2,4-triazol-3-yl)-1-methoxy-1-(5-methyl-2-pyrazinyl)-2-propanesulfonamide], EC50 3.7 nM. Against it:
- COc1cccc(OC)c1-n1c(NS(=O)(=O)[C@@H](C)[C@H](C)c2ncc(F)cn2)nnc1-c1cc2n(n1)CCC2 [Example 208.0, (2S,3R)-N-(5-(5,6-dihydro-4H-pyrrolo[1,2-b]pyrazol-2-yl)-4-(2,6-dimethoxyphenyl)-4H-1,2,4-triazol-3-yl)-3-(5-fluoro-2-pyrimidinyl)-2-butanesulfonamide] — within 1.5-fold, 2.5 nM
- COc1cccc(OC)c1-n1c(NS(=O)(=O)[C@@H](C)[C@H](C)c2ncc(F)cn2)nnc1-c1cncc(C)n1 [Example 209.0, (2S,3R)-N-(4-(2,6-dimethoxyphenyl)-5-(6-methyl-2-pyrazinyl)-4H-1,2,4-triazol-3-yl)-3-(5-fluoro-2-pyrimidinyl)-2-butanesulfonamide] — 2.5-fold lower, 1.5 nM
- COc1cccc(OC)c1-n1c(NS(=O)(=O)[C@@H](C)[C@H](OC)c2ncc(Cl)cn2)nnc1-c1cc2n(n1)CCC2 [Example 210.0, (1R,2S)-1-(5-chloro-2-pyrimidinyl)-N-(5-(5,6-dihydro-4H-pyrrolo[1,2-b]pyrazol-2-yl)-4-(2,6-dimethoxyphenyl)-4H-1,2,4-triazol-3-yl)-1-methoxy-2-propanesulfonamide] — 4.5-fold lower, 0.83 nM
- COc1cccc(OC)c1-n1c(NS(=O)(=O)[C@@H](C)[C@H](C)c2ncc(F)cn2)nnc1-c1cnn(C)c1 [Example 212.0, (2S,3R)-N-(4-(2,6-dimethoxyphenyl)-5-(1-methyl-1H-pyrazol-4-yl)-4H-1,2,4-triazol-3-yl)-3-(5-fluoro-2-pyrimidinyl)-2-butanesulfonamide] — 8.8-fold lower, 0.42 nM
- COc1cccc(OC)c1-n1c(NS(=O)(=O)[C@@H](C)[C@H](OC)c2ncc(Cl)cn2)nnc1-c1cncc(C)n1 [Example 214.0, (1R,2S)-1-(5-chloro-2-pyrimidinyl)-N-(4-(2,6-dimethoxyphenyl)-5-(6-methyl-2-pyrazinyl)-4H-1,2,4-triazol-3-yl)-1-methoxy-2-propanesulfonamide] — 9.2-fold lower, 0.4 nM
- COc1cccc(OC)c1-n1c(NS(=O)(=O)[C@@H](C)[C@H](C)c2ncc(C)cn2)nnc1-c1cnn(C)c1 [Example 215.0, (2S,3R)-N-(4-(2,6-dimethoxyphenyl)-5-(1-methyl-1H-pyrazol-4-yl)-4H-1,2,4-triazol-3-yl)-3-(5-methyl-2-pyrimidinyl)-2-butanesulfonamide] — 8.8-fold lower, 0.42 nM
- CCO[C@H](c1ncc(C)cn1)[C@H](C)S(=O)(=O)Nc1nnc(-c2cc3n(n2)CCC3)n1-c1c(OC)cccc1OC [Example 217.0, (1R,2S)-N-(5-(5,6-dihydro-4H-pyrrolo[1,2-b]pyrazol-2-yl)-4-(2,6-dimethoxyphenyl)-4H-1,2,4-triazol-3-yl)-1-ethoxy-1-(5-methyl-2-pyrimidinyl)-2-propanesulfonamide] — within 1.5-fold, 2.8 nM
- COc1cccc(OC)c1-n1c(NS(=O)(=O)[C@@H](C)[C@H](O)c2ncc(C)cn2)nnc1-c1ccn(C(F)F)n1 [Example 218.0, (1R,2S)-N-(5-(1-(difluoromethyl)-1H-pyrazol-3-yl)-4-(2,6-dimethoxyphenyl)-4H-1,2,4-triazol-3-yl)-1-hydroxy-1-(5-methyl-2-pyrimidinyl)-2-propanesulfonamide] — 4.3-fold lower, 0.87 nM
- COc1cccc(OC)c1-n1c(NS(=O)(=O)[C@@H](C)[C@H](C)c2ncc(C)cn2)nnc1-c1cc2n(n1)CCC2 [Example 219.0, (2S,3R)-N-(5-(5,6-dihydro-4H-pyrrolo[1,2-b]pyrazol-2-yl)-4-(2,6-dimethoxyphenyl)-4H-1,2,4-triazol-3-yl)-3-(5-methyl-2-pyrimidinyl)-2-butanesulfonamide] — 2.2-fold lower, 1.7 nM
